Experimental data: ChEMBL document CHEMBL1143140, “RCAI-8, 9, 18, 19, and 49-52, conformationally restricted analogues of KRN7000 with an azetidine or a pyrrolidine ring: Their synthesis and bioactivity for mouse natural killer T cells to produce cytokines” (Bioorg Med Chem, 2008)
Calls of active or inactive are those of the source. The calls are words filed in the database; no cut-off is given here.

Columns and labels:
Type in all cases: functional, cell-based
Splenocyte [1] = experiment: Induction of IFN-gamma production in C57BL/6 mouse splenocytes after 48 hrs by cytometric bead array method
Splenocyte [2] = experiment: Induction of IL2 production in C57BL/6 mouse splenocytes after 48 hrs by cytometric bead array method
Splenocyte [3] = experiment: Induction of IL13 production in C57BL/6 mouse splenocytes after 48 hrs by cytometric bead array method
Splenocyte [4] = experiment: Induction of IL10 production in C57BL/6 mouse splenocytes after 48 hrs by cytometric bead array method
Splenocyte [5] = experiment: Induction of IL4 production in C57BL/6 mouse splenocytes after 48 hrs by cytometric bead array method

CCCCCCCCCCCCCCCCCCCCCCCCCC(=O)N1[C@H](CCCCCCCCCCCCCC)[C@@H](O)[C@@H]1CO[C@@H]1O[C@H](CO)[C@H](O)[C@H](O)[C@H]1O
Activity (Splenocyte [1]): inactive
Activity (Splenocyte [2]): inactive
Activity (Splenocyte [3]): inactive
Activity (Splenocyte [4]): inactive
Activity (Splenocyte [5]): inactive

CCCCCCCCCCCCCCCCCCCCCCCCCC(=O)N1[C@@H](CCCCCCCCCCCCCC)[C@@H](O)[C@@H]1CO[C@@H]1O[C@H](CO)[C@H](O)[C@H](O)[C@H]1O
Activity (Splenocyte [1]): inactive
Activity (Splenocyte [2]): inactive
Activity (Splenocyte [3]): inactive
Activity (Splenocyte [4]): inactive
Activity (Splenocyte [5]): inactive

CCCCCCCCCCCCCCCCCCCCCCCCCC(=O)N1[C@H](CCCCCCCCCCCCC)C[C@@H](O)[C@@H]1CO[C@@H]1O[C@H](CO)[C@H](O)[C@H](O)[C@H]1O
Activity (Splenocyte [1]): inactive
Activity (Splenocyte [2]): inactive
Activity (Splenocyte [3]): inactive
Activity (Splenocyte [4]): inactive
Activity (Splenocyte [5]): inactive

CCCCCCCCCCCCCCCCCCCCCCCCCC(=O)N1[C@@H](CCCCCCCCCCCCC)C[C@@H](O)[C@@H]1CO[C@@H]1O[C@H](CO)[C@H](O)[C@H](O)[C@H]1O
Activity (Splenocyte [1]): inactive
Activity (Splenocyte [2]): inactive
Activity (Splenocyte [3]): inactive
Activity (Splenocyte [4]): inactive
Activity (Splenocyte [5]): inactive

CCCCCCCCCCCCCCCCCCCCCCCCCC(=O)N1[C@H](CCCCCCCCCCCCCC)[C@@H](O)[C@@H]1CO[C@H]1O[C@H](CO)[C@H](O)[C@H](O)[C@H]1O
Activity (Splenocyte [1]): inactive
Activity (Splenocyte [2]): inactive
Activity (Splenocyte [3]): inactive
Activity (Splenocyte [4]): inactive
Activity (Splenocyte [5]): inactive

CCCCCCCCCCCCCCCCCCCCCCCCCC(=O)N1[C@@H](CCCCCCCCCCCCCC)[C@@H](O)[C@@H]1CO[C@H]1O[C@H](CO)[C@H](O)[C@H](O)[C@H]1O
Activity (Splenocyte [1]): Active
Activity (Splenocyte [2]): Active
Activity (Splenocyte [3]): Active
Activity (Splenocyte [4]): Active
Activity (Splenocyte [5]): Active

CCCCCCCCCCCCCCCCCCCCCCCCCC(=O)N1[C@@H](CCCCCCCCCCCCC)C[C@@H](O)[C@@H]1CO[C@H]1O[C@H](CO)[C@H](O)[C@H](O)[C@H]1O
Activity (Splenocyte [1]): inactive
Activity (Splenocyte [2]): inactive
Activity (Splenocyte [3]): inactive
Activity (Splenocyte [4]): inactive
Activity (Splenocyte [5]): inactive

CCCCCCCCCCCCCCCCCCCCCCCCCC(=O)N1[C@H](CCCCCCCCCCCCC)C[C@@H](O)[C@@H]1CO[C@H]1O[C@H](CO)[C@H](O)[C@H](O)[C@H]1O
Activity (Splenocyte [1]): Active
Activity (Splenocyte [2]): Active
Activity (Splenocyte [3]): Active
Activity (Splenocyte [4]): Active
Activity (Splenocyte [5]): Active
